Blank lines part the entries; values can stand above or below the molecule they belong to.
How the values were obtained:
[1] = target: Bromodomain-containing protein 3 (Homo sapiens, UniProt Q15059); assay: Binding affinity to recombinant human BRD3 bromodomain-1 (44 to 168 residues) expressed in Escherichia coli BL21 (DE3) cells assessed as inhibition constant by fluorescence polarization assay
[2] = target: Histone acetyltransferase p300 (Homo sapiens, UniProt Q09472); assay: Inhibition of p300 (unknown origin) using [3H]-Ac-CoA as substrate preincubated for 15 mins followed by substrate addition and measured after 60 mins by Flashplate assay
Histone acetyltransferase p300, sequence (Q09472 whole entry): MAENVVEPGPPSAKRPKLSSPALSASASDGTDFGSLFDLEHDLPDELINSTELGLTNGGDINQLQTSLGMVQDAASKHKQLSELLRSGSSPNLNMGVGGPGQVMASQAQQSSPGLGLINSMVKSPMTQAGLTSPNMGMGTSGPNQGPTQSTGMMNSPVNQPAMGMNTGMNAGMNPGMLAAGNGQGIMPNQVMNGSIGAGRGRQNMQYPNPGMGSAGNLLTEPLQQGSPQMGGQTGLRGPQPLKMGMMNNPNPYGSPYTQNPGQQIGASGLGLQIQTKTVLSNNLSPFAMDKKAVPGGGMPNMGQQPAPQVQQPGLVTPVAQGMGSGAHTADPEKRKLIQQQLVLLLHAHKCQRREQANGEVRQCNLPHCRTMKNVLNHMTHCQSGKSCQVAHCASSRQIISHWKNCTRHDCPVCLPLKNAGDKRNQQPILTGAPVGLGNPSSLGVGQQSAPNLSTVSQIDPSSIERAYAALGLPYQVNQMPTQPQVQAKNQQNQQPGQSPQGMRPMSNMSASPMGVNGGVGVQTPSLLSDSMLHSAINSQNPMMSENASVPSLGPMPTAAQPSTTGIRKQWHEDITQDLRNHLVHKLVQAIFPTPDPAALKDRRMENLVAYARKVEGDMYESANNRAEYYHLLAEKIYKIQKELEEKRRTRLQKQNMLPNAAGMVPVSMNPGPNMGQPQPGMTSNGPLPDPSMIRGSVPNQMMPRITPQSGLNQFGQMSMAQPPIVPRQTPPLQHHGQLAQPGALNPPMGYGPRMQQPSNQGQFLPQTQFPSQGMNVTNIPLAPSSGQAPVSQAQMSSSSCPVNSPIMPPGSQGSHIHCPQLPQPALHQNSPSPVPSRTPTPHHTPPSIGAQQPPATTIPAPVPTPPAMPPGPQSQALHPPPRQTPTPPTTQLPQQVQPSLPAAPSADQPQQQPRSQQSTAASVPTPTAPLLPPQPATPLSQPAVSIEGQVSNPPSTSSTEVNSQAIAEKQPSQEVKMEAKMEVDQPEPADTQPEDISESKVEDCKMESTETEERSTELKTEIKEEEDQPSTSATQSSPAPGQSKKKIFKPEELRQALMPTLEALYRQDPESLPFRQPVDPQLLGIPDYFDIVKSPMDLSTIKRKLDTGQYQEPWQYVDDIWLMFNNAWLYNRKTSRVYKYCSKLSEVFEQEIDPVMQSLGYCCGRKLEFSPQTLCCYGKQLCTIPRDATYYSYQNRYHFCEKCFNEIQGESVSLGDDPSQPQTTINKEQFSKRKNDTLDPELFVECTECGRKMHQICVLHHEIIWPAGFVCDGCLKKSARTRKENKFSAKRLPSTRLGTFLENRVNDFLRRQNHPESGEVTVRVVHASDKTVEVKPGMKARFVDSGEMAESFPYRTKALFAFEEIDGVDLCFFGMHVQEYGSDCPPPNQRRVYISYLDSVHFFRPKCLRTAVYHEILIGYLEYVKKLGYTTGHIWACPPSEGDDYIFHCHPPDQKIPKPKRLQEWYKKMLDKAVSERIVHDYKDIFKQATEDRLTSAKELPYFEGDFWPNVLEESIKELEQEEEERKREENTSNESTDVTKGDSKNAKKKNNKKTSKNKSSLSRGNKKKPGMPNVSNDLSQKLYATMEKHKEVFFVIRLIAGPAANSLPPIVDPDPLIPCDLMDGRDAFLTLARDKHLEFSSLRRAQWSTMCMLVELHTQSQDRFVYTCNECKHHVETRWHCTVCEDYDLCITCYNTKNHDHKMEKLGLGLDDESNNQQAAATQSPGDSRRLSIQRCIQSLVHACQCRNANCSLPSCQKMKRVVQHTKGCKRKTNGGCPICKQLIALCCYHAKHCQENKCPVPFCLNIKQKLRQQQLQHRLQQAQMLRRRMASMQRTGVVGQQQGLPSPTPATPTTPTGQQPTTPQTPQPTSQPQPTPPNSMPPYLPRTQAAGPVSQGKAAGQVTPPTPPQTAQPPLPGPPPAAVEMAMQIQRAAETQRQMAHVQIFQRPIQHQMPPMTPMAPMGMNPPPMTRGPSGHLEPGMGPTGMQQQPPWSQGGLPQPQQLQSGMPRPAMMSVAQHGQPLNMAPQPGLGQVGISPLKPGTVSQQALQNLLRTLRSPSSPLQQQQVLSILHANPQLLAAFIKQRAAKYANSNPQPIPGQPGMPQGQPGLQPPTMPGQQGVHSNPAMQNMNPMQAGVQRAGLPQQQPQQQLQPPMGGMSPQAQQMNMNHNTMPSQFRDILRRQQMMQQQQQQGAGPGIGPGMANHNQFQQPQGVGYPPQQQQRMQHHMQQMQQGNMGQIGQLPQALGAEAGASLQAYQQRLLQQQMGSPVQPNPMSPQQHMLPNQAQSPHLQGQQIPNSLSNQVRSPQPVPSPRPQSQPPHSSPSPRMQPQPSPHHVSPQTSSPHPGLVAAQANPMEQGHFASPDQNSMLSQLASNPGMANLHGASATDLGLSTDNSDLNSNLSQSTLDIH

[3] = target: E3 ubiquitin-protein ligase Mdm2 (Homo sapiens, UniProt Q00987); assay: Binding affinity to MDM2 (unknown origin) assessed as dissociation constant
E3 ubiquitin-protein ligase Mdm2, sequence (Q00987 whole entry): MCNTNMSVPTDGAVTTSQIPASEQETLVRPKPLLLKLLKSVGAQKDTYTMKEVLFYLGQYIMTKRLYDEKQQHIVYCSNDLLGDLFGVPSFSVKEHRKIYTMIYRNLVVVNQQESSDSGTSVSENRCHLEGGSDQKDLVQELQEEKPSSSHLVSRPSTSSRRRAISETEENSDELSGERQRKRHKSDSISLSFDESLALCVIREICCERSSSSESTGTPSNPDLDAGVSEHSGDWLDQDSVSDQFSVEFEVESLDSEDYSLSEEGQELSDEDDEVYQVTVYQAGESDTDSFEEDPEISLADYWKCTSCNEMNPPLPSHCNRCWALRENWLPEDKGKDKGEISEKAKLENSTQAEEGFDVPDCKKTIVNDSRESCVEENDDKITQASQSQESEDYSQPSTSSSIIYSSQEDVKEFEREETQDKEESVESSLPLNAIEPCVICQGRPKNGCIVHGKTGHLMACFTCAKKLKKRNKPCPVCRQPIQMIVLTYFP

[4] = Inhibition of Aurora (unknown origin); parameters: species or system Homo sapiens
[5] = target: Transcriptional enhancer factor TEF-3 (Homo sapiens, UniProt Q15561); assay: Inhibition of YAP binding to human TEAD4 by fluorescence polarization assay
Transcriptional enhancer factor TEF-3, sequence (Q15561 whole entry): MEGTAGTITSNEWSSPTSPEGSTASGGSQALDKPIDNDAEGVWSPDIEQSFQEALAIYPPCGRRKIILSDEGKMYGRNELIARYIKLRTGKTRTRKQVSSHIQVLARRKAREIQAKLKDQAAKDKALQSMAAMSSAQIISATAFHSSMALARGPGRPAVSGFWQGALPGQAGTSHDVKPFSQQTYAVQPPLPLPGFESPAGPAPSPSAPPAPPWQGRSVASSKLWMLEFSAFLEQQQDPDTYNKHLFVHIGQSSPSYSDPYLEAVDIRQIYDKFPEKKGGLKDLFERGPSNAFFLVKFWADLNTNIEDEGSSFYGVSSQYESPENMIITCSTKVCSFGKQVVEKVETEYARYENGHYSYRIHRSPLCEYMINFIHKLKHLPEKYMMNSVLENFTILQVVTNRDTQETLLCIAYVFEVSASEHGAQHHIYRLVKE

Bromodomain-containing protein 3, sequence (Q15059 whole entry, the tested form may be a part): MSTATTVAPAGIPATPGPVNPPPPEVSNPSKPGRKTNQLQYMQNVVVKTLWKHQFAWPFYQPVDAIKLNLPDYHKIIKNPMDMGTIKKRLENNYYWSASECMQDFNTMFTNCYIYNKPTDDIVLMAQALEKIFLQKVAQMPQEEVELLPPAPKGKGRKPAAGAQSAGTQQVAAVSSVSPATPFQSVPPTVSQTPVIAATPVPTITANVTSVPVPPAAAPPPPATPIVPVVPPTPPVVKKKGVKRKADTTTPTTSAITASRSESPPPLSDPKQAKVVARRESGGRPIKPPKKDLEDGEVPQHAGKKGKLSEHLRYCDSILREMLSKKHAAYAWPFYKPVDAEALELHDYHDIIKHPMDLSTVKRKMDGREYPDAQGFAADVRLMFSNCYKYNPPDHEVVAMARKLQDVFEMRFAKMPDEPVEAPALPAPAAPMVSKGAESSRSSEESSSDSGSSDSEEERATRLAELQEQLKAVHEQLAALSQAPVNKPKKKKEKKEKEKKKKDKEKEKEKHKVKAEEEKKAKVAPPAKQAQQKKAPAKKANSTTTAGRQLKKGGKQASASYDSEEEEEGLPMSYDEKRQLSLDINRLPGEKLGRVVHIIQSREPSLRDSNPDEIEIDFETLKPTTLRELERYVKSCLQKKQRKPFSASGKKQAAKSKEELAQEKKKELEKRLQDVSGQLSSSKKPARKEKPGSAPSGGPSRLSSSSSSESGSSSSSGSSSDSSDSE

Kd [3]: 33 µM
SMILES: Cc1ccc(NC(=O)Cn2cc(CN(C(=O)CCC(=O)OC(C)(C)C)C(C(=O)NC3CCCCC3)c3c[nH]c4cc(Cl)ccc34)nn2)c(C)c1 (stereo not given)

IC50 [5]: 0.51 µM
SMILES: Cc1ccn2cc(Cn3cc(CN(C(=O)CCC(=O)OC(C)(C)C)C(C(=O)NC4C[C@@H]5CC[C@]4(C)C5(C)C)c4c[nH]c5cc(Cl)ccc45)nn3)nc2c1 (stereo not given in full)

The next lines start with the molecule.

SMILES: COc1cc(/C=C/C(=O)Nc2ccc3c(c2)C2(C(=O)N3)C(C(=O)OC(C)(C)C)CC3CSCN32)cc(OC)c1OC (stereo not given)
Ki [1]: 0.131 µM

SMILES: COC(=O)C1CC2CSCN2C12C(=O)Nc1ccc(NCc3ccc([N+](=O)[O-])cc3OCC(=O)O)cc12 (stereo not given)
IC50 [2]: 45 µM

SMILES: CC(C)(C)OC(=O)C1CC2CSCN2C12C(=O)Nc1cc(-c3ccc4c(c3)CC(=O)N4)ccc12 (stereo not given)
IC50 [4]: 45 µM

From ChEMBL document CHEMBL5214903, “Diversity-oriented synthesis as a tool to expand the chemical space of DNA-encoded libraries” (Bioorg Med Chem, 2021)
